From patent US7727988B2, “Azabicyclo[3.1.0]hex-3-yl}alkyl)pyrimidinedione” (Glaxo Group Limited, priority 2006, dated 2010)
Where a name gives a salt, the structure may show the parent alone.

Legend:
dopamine D3 receptor = target: T1, dopamine D3 receptor (Homo sapiens, UniProt P35462); experiment: GTPS scintillation proximity assay (GTPS-SPA), CHO_D3 membranes, antagonist format; type: biochemical
T1 construct: host or cells: Chinese Hamster Ovary (CHO) cells, membranes
Procedure: (§1) Functional potency of compounds of this invention can be measured by the following GTPS scintillation proximity assay (GTPS-SPA). Cells used in the study are Chinese Hamster Ovary (CHO) Cells. • Cell Line • CHO_D2 • CHO_D3 • Dopamine CHO D3 (Biocat no 1060) transduced with bacmam G0 G-protein (Biocat no 97886)
(§2) All steps are performed at 4° C. Cell membranes are prepared as follows. Cell pellets are resuspended in 10 volumes of 50 mM HEPES, 1 mM EDTA pH 7.4, using KOH. Cells are homogenised within a glass waring blender for 2 bursts of 15 secs in 200 mls of buffer (50 mM HEPES, 1 mM leupeptin, 25 μg/ml bacitracin, 1 mM EDTA, 1 mM PMSF, 2 μM Pepstatin A). (the latter 2 reagents added as fresh ×100 and ×500 stocks respectively in ethanol). The blender is plunged into ice for 5 mins after the first burst and 10-40 mins after the final burst to allow foam to dissipate. The material is then spun at 500 g for 20 mins and the supernatant spun for 36 mins at 48.000 g. The pellet is resuspended in the same buffer as above but without PMSF and Pepstatin A. The material is then forced through a 0.6 mm needle, made up to the required volume, (usually ×4 the volume of the original cell pellet), aliquoted and stored frozen at −80° C.
(§3) The final top concentration of test drug is 3 μM in the assay and 11 points serial dilution curves 1:4 in 100% DMSO are carried out using a Biomek FX. The test drug at 1% (0.5 ul) total assay volume (TAV) is added to a solid, white Greiner polypropylene 384-well assay plate. 50% TAV (25 μl) of precoupled (for 60 mins at RT) membranes, 5 μg/well, and Wheatgerm Agglutinin Polystyrene Scintillation Proximity Assay beads (RPNQ0260, Amersham), 0.25 mg/well, in 20 mM HEPES (pH 7.4, 100 mM NaCl, 10 mM MgCl2), 60 μg/mL saponin and 30 uM GDP is added. The third addition is a 20% TAV (10 ul) addition of either buffer, (agonist format) or EC80 final assay concentration of agonist, Quinelorane, prepared in assay buffer (antagonist format). The assay is started by the addition of 29% TAV (15 ul) of GTP[35S] 0.38 nM final (37 MBq/mL, 1160 Ci/mmol, Amersham). After all additions assay plates are spun down for 1 min at 1,000 rpm. The final assay cocktail ([…]) is incubated at room temperature to equilibrate for 3-6 hours before reading on a ViewLux™ (613/55 filter) luminescence imager 5 min/plate.
(§4) The effect of the test drug over the basal generates fpKi values of test drug are calculated from the IC50 generated by “antagonist format” experiment, using Cheng & Prusoff equation: fKi=IC50/1+([A]/EC50) where: [A] is the concentration of the agonist Quinelorane in the assay and EC50 is the Quinelorane EC50 value obtained in the same experiment. fpKi is defined as −logfKi. • pKi results are only estimated to be accurate to about 0.3-0.5.

dopamine D2 receptor = target: T2, dopamine D2 receptor (Homo sapiens, UniProt P14416); experiment: GTPS scintillation proximity assay (GTPS-SPA), CHO_D2 membranes; type: biochemical; conditions: up to the highest concentration tested in the assay (3 μM)
T2 construct: expressed in transfected cells; host or cells: Chinese Hamster Ovary (CHO) cells, membranes
T2 sequence (P14416 whole entry): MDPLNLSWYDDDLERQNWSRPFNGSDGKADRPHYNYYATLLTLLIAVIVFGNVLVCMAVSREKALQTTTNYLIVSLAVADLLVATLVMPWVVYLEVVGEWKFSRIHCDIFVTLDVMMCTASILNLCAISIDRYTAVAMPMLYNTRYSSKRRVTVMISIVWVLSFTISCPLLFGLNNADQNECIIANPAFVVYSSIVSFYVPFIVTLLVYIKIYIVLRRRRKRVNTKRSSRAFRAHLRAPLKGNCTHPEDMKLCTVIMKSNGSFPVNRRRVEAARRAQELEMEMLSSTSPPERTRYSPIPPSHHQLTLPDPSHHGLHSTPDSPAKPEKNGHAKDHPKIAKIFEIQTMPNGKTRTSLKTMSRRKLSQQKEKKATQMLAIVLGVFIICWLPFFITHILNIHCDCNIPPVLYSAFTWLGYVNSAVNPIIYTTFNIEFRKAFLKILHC
Procedure: as §1, §2, §3, §4

T1 sequence (P35462 whole entry, species assumed): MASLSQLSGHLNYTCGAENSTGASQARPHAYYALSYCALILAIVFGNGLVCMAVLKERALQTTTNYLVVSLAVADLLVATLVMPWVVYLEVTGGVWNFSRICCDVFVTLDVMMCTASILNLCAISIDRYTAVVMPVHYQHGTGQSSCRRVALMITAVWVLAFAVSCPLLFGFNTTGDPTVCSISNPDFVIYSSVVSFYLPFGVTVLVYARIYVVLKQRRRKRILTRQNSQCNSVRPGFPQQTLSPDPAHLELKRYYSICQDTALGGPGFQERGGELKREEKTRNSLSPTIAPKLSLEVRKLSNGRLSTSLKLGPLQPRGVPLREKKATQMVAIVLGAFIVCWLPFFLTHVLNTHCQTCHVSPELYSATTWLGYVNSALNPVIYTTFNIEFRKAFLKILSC

Row | Compound | Selectivity for D3 over D2 receptors (dopamine D3 receptor) [fold] | activity in the D2 GTPS-SPA assay (dopamine D2 receptor)
1 | Cl.O=c1[nH]c(=O)n(CCCN2C[C@@H]3C[C@]3(c3ccc(C(F)(F)F)cc3)C2)cc1-c1ccccc1 [Example E9, 5-phenyl-1-(3-{(1S,5R)-1-[4-(trifluoromethyl)phenyl]-3-azabicyclo-[3.1.0]hex-3-yl}propyl)-2,4(1H,3H)-pyrimidinedione hydrochloride] | 199 | 
2 | Cc1ccsc1-c1cn(CCCCN2C[C@@H]3C[C@]3(c3ccc(C(F)(F)F)cc3)C2)c(=O)[nH]c1=O.Cl [Example E16, 5-(3-methyl-2-thienyl)-1-(4-{(1S,5R)-1-[4-(trifluoromethyl)phenyl]-3-azabicyclo[3.1.0]hex-3-yl}butyl)-2,4(1H,3H)-pyrimidinedione hydrochloride] | 100 | 
3 | Cc1cc(-c2cn(CCCCN3C[C@@H]4C[C@]4(c4ccc(C(F)(F)F)cc4)C3)c(=O)[nH]c2=O)ccn1.Cl.Cl [Example E28, 5-(2-methyl-4-pyridinyl)-1-(4-{(1S,5R)-1-[4-(trifluoromethyl)phenyl]-3-azabicyclo[3.1.0]hex-3-yl}butyl)-2,4(1H,3H)-pyrimidinedione dihydrochloride] | 316 | 
4 | Cc1nc(C)c(-c2cn(CCCCN3C[C@@H]4C[C@]4(c4ccc(C(F)(F)F)cc4)C3)c(=O)[nH]c2=O)o1.Cl [Example E42, 5-(2,4-dimethyl-1,3-oxazol-5-yl)-1-(4-{(1S,5R)-1-[4-(trifluoromethyl)phenyl]-3-azabicyclo[3.1.0]hex-3-yl}butyl)-2,4(1H,3H)-pyrimidinedione hydrochloride] |  | no activity
5 | Cl.Cl.O=c1[nH]c(=O)n(CCCN2C[C@@H]3C[C@]3(c3ccc(C(F)(F)F)cc3)C2)cc1-c1ccc(F)nc1 [Example E20, 5-(6-fluoro-3-pyridinyl)-1-(3-{(1S,5R)-1-[4-(trifluoromethyl)phenyl]-3-azabicyclo[3.1.0]hex-3-yl}propyl)-2,4(1H,3H)-pyrimidinedione dihydrochloride] |  | no activity
6 | Cl.Cl.O=c1[nH]c(=O)n(CCCN2C[C@@H]3C[C@]3(c3ccc(C(F)(F)F)cc3)C2)cc1-c1ccncc1F [Example E44, 5-(3-fluoro-4-pyridinyl)-1-(3-{(1S,5R)-1-[4-(trifluoromethyl)phenyl]-3-azabicyclo[3.1.0]hex-3-yl}propyl)-2,4(1H,3H)-pyrimidinedione dihydrochloride] |  | no activity
7 | Cc1cc(Cl)ccc1-c1cn(CCCN2C[C@@H]3C[C@]3(c3ccc(C(F)(F)F)cc3)C2)c(=O)[nH]c1=O [Example E53, 5-(4-chloro-2-methylphenyl)-1-(3-{(1S,5R)-1-[4-(trifluoromethyl)phenyl]-3-azabicyclo[3.1.0]hex-3-yl}propyl)-2,4(1H,3H)-pyrimidinedione] |  | no activity
8 | Cc1nc(C)c(-c2cn(CCCN3C[C@@H]4C[C@]4(c4ccc(C(F)(F)F)cc4)C3)c(=O)[nH]c2=O)o1.Cl [Example E41, 5-(2,4-dimethyl-1,3-oxazol-5-yl)-1-(3-{(1S,5R)-1-[4-(trifluoromethyl)phenyl]-3-azabicyclo[3.1.0]hex-3-yl}propyl)-2,4(1H,3H)-pyrimidinedione hydrochloride] |  | no activity

Results, then the molecule that gave them:

Row | Selectivity for D3 over D2 receptors (dopamine D3 receptor) [fold] | activity in the D2 GTPS-SPA assay (dopamine D2 receptor) | Compound
9 | 100 |  | Cl.O=c1[nH]c(=O)n(CCCN2C[C@@H]3C[C@]3(c3ccc(C(F)(F)F)cc3)C2)cc1-c1cccs1 [Example E8, 5-(2-thienyl)-1-(3-{(1S,5R)-1-[4-(trifluoromethyl)phenyl]-3-azabicyclo[3.1.0]hex-3-yl}propyl)-2,4(1H,3H)-pyrimidinedione hydrochloride]
10 | 199 |  | Cc1cccc(-c2cn(CCCN3C[C@@H]4C[C@]4(c4ccc(C(F)(F)F)cc4)C3)c(=O)[nH]c2=O)n1.Cl.Cl [Example E30, 5-(6-methyl-2-pyridinyl)-1-(3-{(1S,5R)-1-[4-(trifluoromethyl)phenyl]-3-azabicyclo[3.1.0]hex-3-yl}propyl)-2,4(1H,3H)-pyrimidinedione dihydrochloride]
11 |  | no activity | Cl.N#Cc1cn(CCCN2C[C@@H]3C[C@]3(c3ccc(C(F)(F)F)cc3)C2)c(=O)[nH]c1=O [Example E17, 2,4-dioxo-1-(3-{(1S,5R)-1-[4-(trifluoromethyl)phenyl]-3-azabicyclo[3.1.0]hex-3-yl}propyl)-1,2,3,4-tetrahydro-5-pyrimidinecarbonitrile hydrochloride]
12 |  | no activity | Cc1cc(-c2cn(CCCN3C[C@@H]4C[C@]4(c4ccc(C(F)(F)F)cc4)C3)c(=O)[nH]c2=O)ccn1.Cl [Example E23, 5-(2-methyl-4-pyridinyl)-1-(3-{(1S,5R)-1-[4-(trifluoromethyl)phenyl]-3-azabicyclo[3.1.0]hex-3-yl}propyl)-2,4(1H,3H)-pyrimidinedione hydrochloride]
13 |  | no activity | O=c1[nH]c(=O)n(CCCN2CC3C[C@]3(c3ccc(C(F)(F)F)cc3)C2)cc1-c1cccc(C(F)(F)F)n1 (stereo partly shown) [Example E38, dihydrochloride]
14 |  | no activity | Cl.O=c1ccn(CCCCN2C[C@@H]3C[C@]3(c3ccc(C(F)(F)F)cc3)C2)c(=O)[nH]1 [Example E5, 1-(4-{(1S,5R)-1-[4-(trifluoromethyl)phenyl]-3-azabicyclo[3.1.0]hex-3-yl}butyl)-2,4(1H,3H)-pyrimidinedione hydrochloride]
15 |  | no activity | Cc1ccncc1-c1cn(CCCN2C[C@@H]3C[C@]3(c3ccc(C(F)(F)F)cc3)C2)c(=O)[nH]c1=O.Cl.Cl [Example E64, 5-(4-methyl-3-pyridinyl)-1-(3-{(1S,5R)-1-[4-(trifluoromethyl)phenyl]-3-azabicyclo[3.1.0]hex-3-yl}propyl)-2,4(1H,3H)-pyrimidinedione dihydrochloride]
16 |  | no activity | Cc1cc(F)ccc1-c1cn(CCCN2C[C@@H]3C[C@]3(c3ccc(C(F)(F)F)cc3)C2)c(=O)[nH]c1=O [Example E51, 5-(4-fluoro-2-methylphenyl)-1-(3-{(1S,5R)-1-[4-(trifluoromethyl)phenyl]-3-azabicyclo[3.1.0]hex-3-yl}propyl)-2,4(1H,3H)-pyrimidinedione]
17 |  | no activity | O=c1[nH]c(=O)n(CCCN2C[C@@H]3C[C@]3(c3ccc(C(F)(F)F)cc3)C2)cc1-c1ccc(Cl)nc1 [Example E59, 5-(6-chloro-3-pyridinyl)-1-(3-{(1S,5R)-1-[4-(trifluoromethyl)phenyl]-3-azabicyclo[3.1.0]hex-3-yl}propyl)-2,4(1H,3H)-pyrimidinedione dihydrochloride]
18 |  | no activity | Cc1cccc(-c2cn(CCCCN3C[C@@H]4C[C@]4(c4ccc(C(F)(F)F)cc4)C3)c(=O)[nH]c2=O)n1.Cl.Cl [Example E32, 5-(6-methyl-2-pyridinyl)-1-(4-{(1S,5R)-1-[4-(trifluoromethyl)phenyl]-3-azabicyclo[3.1.0]hex-3-yl}butyl)-2,4(1H,3H)-pyrimidinedione dihydrochloride]
19 |  | no activity | Cc1ccc(-c2cn(CCCN3C[C@@H]4C[C@]4(c4ccc(C(F)(F)F)cc4)C3)c(=O)[nH]c2=O)c(F)n1.Cl.Cl [Example E35, 5-(2-fluoro-6-methyl-3-pyridinyl)-1-(3-{(1S,5R)-1-[4-(trifluoromethyl)phenyl]-3-azabicyclo[3.1.0]hex-3-yl}propyl)-2,4(1H,3H)-pyrimidinedione dihydrochloride]
